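How tested: cells in 96-well plates exposed to compound for 48 hours at five concentrations. GI50 marks 50% less growth. TGI: total growth inhibition.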
Tests used:
Test in all cases: NCI anticancer screen, dose series, 48 h
KM12 colon = tested on: KM12 colon
MDA-MB-231 breast = tested on: MDA-MB-231 breast
NCI-H460 lung = tested on: NCI-H460 lung
U251 CNS = tested on: U251 CNS
OVCAR-3 ovarian = tested on: OVCAR-3 ovarian
SNB-75 CNS = tested on: SNB-75 CNS
SK-MEL-5 melanoma = tested on: SK-MEL-5 melanoma
NCI-H522 lung = tested on: NCI-H522 lung
ACHN renal = tested on: ACHN renal
HOP-92 NSCLC = tested on: HOP-92 NSCLC
SF-539 CNS = tested on: SF-539 CNS
EKVX NSCLC = tested on: EKVX NSCLC
RPMI-8226 leukemia = tested on: RPMI-8226 leukemia
MCF7 breast = tested on: MCF7 breast
MDA-MB-468 breast = tested on: MDA-MB-468 breast
HCT-116 colon = tested on: HCT-116 colon
BT-549 breast = tested on: BT-549 breast
COLO 205 colon = tested on: COLO 205 colon
SNB-19 CNS = tested on: SNB-19 CNS
MALME-3M melanoma = tested on: MALME-3M melanoma
UACC-62 melanoma = tested on: UACC-62 melanoma
CCRF-CEM leukemia = tested on: CCRF-CEM leukemia
OVCAR-5 ovarian = tested on: OVCAR-5 ovarian
DU-145 prostate = tested on: DU-145 prostate
SF-295 CNS = tested on: SF-295 CNS
HCT-15 colon = tested on: HCT-15 colon
SK-MEL-28 melanoma = tested on: SK-MEL-28 melanoma
LOX IMVI melanoma = tested on: LOX IMVI melanoma
OVCAR-4 ovarian = tested on: OVCAR-4 ovarian
786-0 renal = tested on: 786-0 renal
SN12C renal = tested on: SN12C renal
NCI-H226 lung = tested on: NCI-H226 lung
UO-31 renal = tested on: UO-31 renal
HS 578T breast = tested on: HS 578T breast
TK-10 renal = tested on: TK-10 renal
CAKI-1 renal = tested on: CAKI-1 renal
UACC-257 melanoma = tested on: UACC-257 melanoma
SW-620 colon = tested on: SW-620 colon
SK-MEL-2 melanoma = tested on: SK-MEL-2 melanoma
T-47D breast = tested on: T-47D breast
RXF 393 renal = tested on: RXF 393 renal
SF-268 CNS = tested on: SF-268 CNS
K-562 leukemia = tested on: K-562 leukemia
NCI-H23 lung = tested on: NCI-H23 lung
SK-OV-3 ovarian = tested on: SK-OV-3 ovarian
IGROV1 ovarian = tested on: IGROV1 ovarian
MDA-MB-435 = tested on: MDA-MB-435
A498 renal = tested on: A498 renal
HCC-2998 colon = tested on: HCC-2998 colon
M14 melanoma = tested on: M14 melanoma
OVCAR-8 ovarian = tested on: OVCAR-8 ovarian
HOP-62 NSCLC = tested on: HOP-62 NSCLC
PC-3 prostate = tested on: PC-3 prostate
HT29 colon = tested on: HT29 colon
A549 NSCLC = tested on: A549 NSCLC

In the case of `O=C(N/N=C/c1ccc(-c2ccc(O)cc2)s1)c1[nH]c2ccc(Br)cc2c1-c1ccccc1`, the GI50 (KM12 colon) is reported as 2.77 µM, the TGI (KM12 colon) is reported as 9.53 µM and the GI50 (MDA-MB-231 breast) is reported as 3.36 µM. It also gave a TGI (MDA-MB-231 breast) of 11.5 µM, a GI50 (NCI-H460 lung) of 2.72 µM and a TGI (NCI-H460 lung) of 7.99 µM. For the same molecule, the GI50 (U251 CNS) was 3.63 µM, the TGI (U251 CNS) was 15.5 µM and the GI50 (OVCAR-3 ovarian) was 3.38 µM. The TGI (OVCAR-3 ovarian) was 13.6 µM, the GI50 (SNB-75 CNS) was 3.27 µM and the TGI (SNB-75 CNS) was 12.4 µM. For the same molecule, the GI50 (SK-MEL-5 melanoma) was 1.87 µM, the TGI (SK-MEL-5 melanoma) was 4.16 µM and the GI50 (NCI-H522 lung) was 3.42 µM. It also gave a TGI (NCI-H522 lung) of 14.3 µM, a GI50 (ACHN renal) of 2.92 µM and a TGI (ACHN renal) of 10.9 µM. The GI50 (HOP-92 NSCLC) was 2.98 µM, the TGI (HOP-92 NSCLC) was 9.12 µM and the GI50 (SF-539 CNS) was 2.76 µM. It also gave a TGI (SF-539 CNS) of 8.43 µM, a GI50 (EKVX NSCLC) of 4.04 µM and a TGI (EKVX NSCLC) of 14.8 µM. It also gave a GI50 (RPMI-8226 leukemia) of 3.14 µM, a TGI (RPMI-8226 leukemia) of over 100 µM and a GI50 (MCF7 breast) of 2.57 µM. The TGI (MCF7 breast) was 10.9 µM, the GI50 (MDA-MB-468 breast) was 2.67 µM and the TGI (MDA-MB-468 breast) was 7.57 µM. It also gave a GI50 (HCT-116 colon) of 3.09 µM, a TGI (HCT-116 colon) of 11.7 µM and a GI50 (BT-549 breast) of 2.95 µM. For the same molecule, the TGI (BT-549 breast) was 9.97 µM, the GI50 (COLO 205 colon) was 7.12 µM and the TGI (COLO 205 colon) was 23 µM. The GI50 (SNB-19 CNS) was 4.01 µM, the TGI (SNB-19 CNS) was 14 µM and the GI50 (MALME-3M melanoma) was 2.41 µM. It also gave a TGI (MALME-3M melanoma) of 9.77 µM, a GI50 (UACC-62 melanoma) of 2.65 µM and a TGI (UACC-62 melanoma) of 10 µM. For the same molecule, the GI50 (CCRF-CEM leukemia) was 2.46 µM, the TGI (CCRF-CEM leukemia) was over 100 µM and the GI50 (OVCAR-5 ovarian) was 5.15 µM. For the same molecule, the TGI (OVCAR-5 ovarian) was 17.2 µM, the GI50 (DU-145 prostate) was 4.48 µM and the TGI (DU-145 prostate) was 15.7 µM. It also gave a GI50 (SF-295 CNS) of 2.2 µM, a TGI (SF-295 CNS) of 5.28 µM and a GI50 (HCT-15 colon) of 2.72 µM. For the same molecule, the TGI (HCT-15 colon) was 10.6 µM, the GI50 (SK-MEL-28 melanoma) was 3.22 µM and the TGI (SK-MEL-28 melanoma) was 11.8 µM. The GI50 (LOX IMVI melanoma) was 2 µM, the TGI (LOX IMVI melanoma) was 5.51 µM and the GI50 (OVCAR-4 ovarian) was 3.52 µM. For the same molecule, the TGI (OVCAR-4 ovarian) was 14.1 µM, the GI50 (786-0 renal) was 2.16 µM and the TGI (786-0 renal) was 9.19 µM. It also gave a GI50 (SN12C renal) of 3.48 µM, a TGI (SN12C renal) of 13 µM and a GI50 (NCI-H226 lung) of 5.63 µM. It also gave a TGI (NCI-H226 lung) of 20.9 µM, a GI50 (UO-31 renal) of 2.7 µM and a TGI (UO-31 renal) of 13.5 µM. The GI50 (HS 578T breast) was 3.02 µM, the TGI (HS 578T breast) was 14.1 µM and the GI50 (TK-10 renal) was 5.05 µM. It also gave a TGI (TK-10 renal) of 19.3 µM, a GI50 (CAKI-1 renal) of 3.46 µM and a TGI (CAKI-1 renal) of 13.8 µM. It also gave a GI50 (UACC-257 melanoma) of 10.5 µM, a TGI (UACC-257 melanoma) of 28 µM and a GI50 (SW-620 colon) of 4.14 µM. The TGI (SW-620 colon) was 15.2 µM, the GI50 (SK-MEL-2 melanoma) was 3.45 µM and the TGI (SK-MEL-2 melanoma) was 12.2 µM. The GI50 (T-47D breast) was 4.6 µM, the TGI (T-47D breast) was 39.4 µM and the GI50 (RXF 393 renal) was 1.92 µM. It also gave a TGI (RXF 393 renal) of 4.56 µM, a GI50 (SF-268 CNS) of 5.16 µM and a TGI (SF-268 CNS) of 20.3 µM. The GI50 (K-562 leukemia) was 2.95 µM, the TGI (K-562 leukemia) was over 100 µM and the GI50 (NCI-H23 lung) was 3.25 µM. For the same molecule, the TGI (NCI-H23 lung) was 11.2 µM, the GI50 (SK-OV-3 ovarian) was 12.2 µM and the TGI (SK-OV-3 ovarian) was 27.8 µM. It also gave a GI50 (IGROV1 ovarian) of 3.45 µM, a TGI (IGROV1 ovarian) of 12.9 µM and a GI50 (MDA-MB-435) of 2.99 µM. It also gave a TGI (MDA-MB-435) of 10.1 µM, a GI50 (A498 renal) of 5.57 µM and a TGI (A498 renal) of 18.9 µM. The GI50 (HCC-2998 colon) was 3.16 µM, the TGI (HCC-2998 colon) was 10.6 µM and the GI50 (M14 melanoma) was 2.75 µM. The TGI (M14 melanoma) was 10.5 µM, the GI50 (OVCAR-8 ovarian) was 4.22 µM and the TGI (OVCAR-8 ovarian) was 17 µM. The GI50 (HOP-62 NSCLC) was 6.32 µM, the TGI (HOP-62 NSCLC) was 23.6 µM and the GI50 (PC-3 prostate) was 3.17 µM. It also gave a TGI (PC-3 prostate) of 13.9 µM, a GI50 (HT29 colon) of 2.3 µM and a TGI (HT29 colon) of 5.36 µM. The GI50 (A549 NSCLC) was 4.28 µM and the TGI (A549 NSCLC) was 17.7 µM.
